Experimental data reported in article PMC7917901 (Marine Drugs, 2021).
Where two headings read alike, the source gives them in different places.

What was measured:
[1] = human, in vivo; cited from earlier work
[2] = tested on: mechanical and cold allodynia; settings: cited from earlier work
C57BL/6J mice [3] = experiment: Induction of mechanical allodynia and general observations after intraplantar oxaliplatin or cisplatin; settings: 40 µg/paw i.pl.
[4] = tested on: nerve injury-induced hyperalgesia in mice; settings: mouse, in vivo, sc; cited from earlier work
C57BL/6J mice [5] = settings: mouse, in vivo
[6] = to oxalate and dichloro 1,2-diaminocyclohexyl-platinum complex; ref [48]; cited from earlier work
Excerpt: Although both oxaliplatin and cisplatin are platinum based antineoplastic drugs, and both act by DNA alkylation, they differ markedly in their ability to elicit pain syndromes. […] The most distinctive feature of oxaliplatin is ...

SMILES: CSCC[C@@H]1NC(=O)[C@H](CC(C)C)NC(=O)[C@H](CCCNC(=N)N)NC(=O)[C@H](CO)NC(=O)[C@@H]2CSSC[C@@H]3NC(=O)[C@H](CO)NC(=O)CNC(=O)[C@H]([C@@H](C)O)NC(=O)[C@H](CSSC[C@H](N)C(=O)N[C@@H](CCCCN)C(=O)NCC(=O)N[C@@H](CCCCN)C(=O)NCC(=O)N[C@@H](C)C(=O)N[C@@H](CCCCN)C(=O)N2)NC(=O)[C@H](CSSC[C@@H](C(N)=O)NC(=O)[C@H](CCCCN)NC(=O)CNC(=O)[C@H](CO)NC(=O)[C@H](CCCNC(=N)N)NC3=O)NC(=O)[C@H](CC(=O)O)NC(=O)[C@H](Cc2ccc(O)cc2)NC1=O [MVIIA]
- Dose limiting side effects [1]: dose limiting side effects including dizziness, nystagmus, sedation, blurred vision, and orthostatic hypotension

SMILES: N.N.[Cl][Pt][Cl] [cisplatin]
- Type of allodynia caused ([2]; ref [45],[46],[47]): only evokes mechanical allodynia
- Adverse signs after platinum drug injection (C57BL/6J mice [3]): No sign of adverse effects including, licking, shaking, or lameness of the injected paws was observed
- Mechanical PWT after cisplatin (C57BL/6J mice [3]; right hind paw, 24 h after injection, mean ± SEM, n = 18, naïve 3.3 ± 0.1 g, p < 0.0001): 1.9 ± 0.1 g

SMILES: COC(=O)C1=C(C)NC(C)=C(C(=O)OC)C1c1ccccc1[N+](=O)[O-] [nifedipine]
- Effect on nerve injury-induced hyperalgesia [4]: ineffective

SMILES: O=C1[O][Pt]2([NH][C@@H]3CCCC[C@H]3[NH]2)[O]C1=O [oxaliplatin]
- Adverse signs after platinum drug injection (C57BL/6J mice [5]): maintained healthy appearance and body weight with no sign of licking, shaking, or lameness of the injected paw
- Mechanical PWT after oxaliplatin (C57BL/6J mice [5]): 1.4 ± 0.1 g
- Non-enzymatic transformation [6]: fast, non-enzymatic transformation
- Type of allodynia caused ([2]; in vivo): causes both mechanical and cold allodynia
